The values that follow come from ChEMBL document CHEMBL1201862, “PubChem BioAssay data set” (2004).

For assay [1], the target named is T1, G-protein coupled receptor 55 (Homo sapiens, UniProt Q9Y2T6). As to the kind of experiment: selective activators of receptor GPR55 – imaging, U2OS cells, beta-arrestin-GFP redistribution, primary screen (AID 1961). It counts as functional.
In another assay the target is Integrin alpha-L (Mus musculus, UniProt P24063). Put plainly: modulators of CD8 T cell-vesicle binding, dose response, powder samples, mouse 2C CD8+ cells (AID 504565). It counts as functional.
The target in the next assay is T2, Coagulation factor XII (Homo sapiens, UniProt P00748).
T2 sequence (P00748 whole entry): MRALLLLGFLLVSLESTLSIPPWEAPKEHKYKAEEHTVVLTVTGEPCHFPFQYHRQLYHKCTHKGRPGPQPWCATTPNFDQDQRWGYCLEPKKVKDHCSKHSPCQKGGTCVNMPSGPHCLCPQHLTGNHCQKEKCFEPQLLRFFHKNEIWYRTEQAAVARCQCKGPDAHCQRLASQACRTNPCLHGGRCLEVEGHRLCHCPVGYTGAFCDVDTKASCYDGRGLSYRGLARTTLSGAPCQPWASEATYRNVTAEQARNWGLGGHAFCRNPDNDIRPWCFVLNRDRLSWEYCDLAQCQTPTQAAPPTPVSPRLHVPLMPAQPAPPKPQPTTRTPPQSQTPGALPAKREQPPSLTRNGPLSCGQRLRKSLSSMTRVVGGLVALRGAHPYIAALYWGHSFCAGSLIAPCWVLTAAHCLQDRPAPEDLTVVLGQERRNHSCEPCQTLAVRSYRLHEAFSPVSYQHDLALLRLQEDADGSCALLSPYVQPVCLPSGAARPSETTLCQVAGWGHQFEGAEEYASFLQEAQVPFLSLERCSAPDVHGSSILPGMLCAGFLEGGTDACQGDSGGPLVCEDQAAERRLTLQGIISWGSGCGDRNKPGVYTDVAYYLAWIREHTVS
Put plainly: activated coagulation factor XII inhibitor potency, concentration-effect curve, cell-free (AID 716). It counts as functional.

In assay [2] the target is T1, G-protein coupled receptor 55. Put plainly: inhibition of LPI-stimulated GPR55 beta-arrestin translocation – imaging, U2OS, beta-arrestin-GFP, LPI agonist, primary screen (AID 2013).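 Note: antagonist potency measured as reduced agonist-driven arrestin aggregation.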 Format: functional.
Assay [3] in a line: viability of uninfected HEp-2 cells – cell-based, HTS, cytotoxicity control for RSV inhibitor project, dose response (AID 2410). Format: functional. The note with it: human respiratory syncytial virus.
Assay [4] concerns the target Sphingosine 1-phosphate receptor 4 (Homo sapiens, UniProt O95977). As to the kind of experiment: Fluorescence dose response cell-based high throughput screening assay for agonists of the Sphingosine 1-Phosphate Receptor 4 (S1P4). [Related pubchem assays: 1509 (Primary screen.), 1523 (Confirmation screen in triplicates.)]. It counts as functional.
Assay [5] has as its target Sphingosine 1-phosphate receptor 1 (Homo sapiens, UniProt P21453). As to the kind of experiment: Fluorescence-based counterscreen assay for S1P4 agonists: Cell-based dose response high throughput screening assay to identify agonists of the Sphingosine 1-Phosphate Receptor 1 (S1P1). [Related pubchem assays (depositor defined):AID1509, AID1523, AID1801, AID463107, AID463118, AID463119, AID463122, AID463123, AID463129, AID463225, AID504400, AID504460]. Format: functional.

The target in another assay is CAAX prenyl protease 1 (Saccharomyces cerevisiae S288c, UniProt P47154). As to the kind of experiment: yeast CAAX protease Ste24 inhibition – biochemical, S. cerevisiae, plate reader, cherry-pick, dose response (AID 488815).

Calls of active or inactive are those of the source.

T1 sequence (Q9Y2T6 whole entry): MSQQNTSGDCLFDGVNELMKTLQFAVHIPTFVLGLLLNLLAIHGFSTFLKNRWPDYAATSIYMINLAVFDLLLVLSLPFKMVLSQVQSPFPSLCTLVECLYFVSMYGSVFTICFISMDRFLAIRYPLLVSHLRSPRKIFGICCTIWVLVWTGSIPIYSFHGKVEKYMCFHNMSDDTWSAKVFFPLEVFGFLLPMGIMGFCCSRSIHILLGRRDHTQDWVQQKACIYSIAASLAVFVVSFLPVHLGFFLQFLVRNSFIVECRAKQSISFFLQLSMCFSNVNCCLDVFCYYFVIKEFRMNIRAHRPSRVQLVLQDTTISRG
Sequence of Integrin alpha-L (P24063 whole entry): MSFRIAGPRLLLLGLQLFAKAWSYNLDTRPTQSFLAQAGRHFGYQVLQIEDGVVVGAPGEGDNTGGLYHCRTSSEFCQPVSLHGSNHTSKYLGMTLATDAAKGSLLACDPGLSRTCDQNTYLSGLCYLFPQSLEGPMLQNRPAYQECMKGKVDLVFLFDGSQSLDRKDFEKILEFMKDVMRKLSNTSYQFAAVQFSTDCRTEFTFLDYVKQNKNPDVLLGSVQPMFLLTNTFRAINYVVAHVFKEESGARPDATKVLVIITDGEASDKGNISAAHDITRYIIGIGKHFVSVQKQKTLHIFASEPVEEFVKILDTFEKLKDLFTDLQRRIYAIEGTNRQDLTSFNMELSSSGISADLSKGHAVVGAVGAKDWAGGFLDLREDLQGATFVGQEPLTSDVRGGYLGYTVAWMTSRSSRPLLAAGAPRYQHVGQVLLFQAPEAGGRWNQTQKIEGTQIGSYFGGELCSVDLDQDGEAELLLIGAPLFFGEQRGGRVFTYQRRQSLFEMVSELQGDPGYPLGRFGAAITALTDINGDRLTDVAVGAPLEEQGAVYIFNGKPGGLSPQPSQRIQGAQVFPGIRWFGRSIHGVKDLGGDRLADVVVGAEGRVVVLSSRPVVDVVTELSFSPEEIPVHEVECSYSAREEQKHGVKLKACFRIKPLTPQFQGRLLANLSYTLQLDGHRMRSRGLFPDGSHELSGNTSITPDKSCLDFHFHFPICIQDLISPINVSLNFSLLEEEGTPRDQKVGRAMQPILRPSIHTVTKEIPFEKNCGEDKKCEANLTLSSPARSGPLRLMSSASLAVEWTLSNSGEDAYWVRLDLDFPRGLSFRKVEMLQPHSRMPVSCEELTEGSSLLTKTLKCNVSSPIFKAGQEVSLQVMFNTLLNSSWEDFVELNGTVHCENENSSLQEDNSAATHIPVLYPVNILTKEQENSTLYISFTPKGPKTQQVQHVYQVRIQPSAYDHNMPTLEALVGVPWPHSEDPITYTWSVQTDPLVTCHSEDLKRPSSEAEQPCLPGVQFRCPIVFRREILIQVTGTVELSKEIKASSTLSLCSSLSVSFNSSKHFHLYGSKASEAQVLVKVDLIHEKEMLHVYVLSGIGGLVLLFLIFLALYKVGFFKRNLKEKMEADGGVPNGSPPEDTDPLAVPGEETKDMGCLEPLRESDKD
Sequence of Sphingosine 1-phosphate receptor 4 (O95977 whole entry): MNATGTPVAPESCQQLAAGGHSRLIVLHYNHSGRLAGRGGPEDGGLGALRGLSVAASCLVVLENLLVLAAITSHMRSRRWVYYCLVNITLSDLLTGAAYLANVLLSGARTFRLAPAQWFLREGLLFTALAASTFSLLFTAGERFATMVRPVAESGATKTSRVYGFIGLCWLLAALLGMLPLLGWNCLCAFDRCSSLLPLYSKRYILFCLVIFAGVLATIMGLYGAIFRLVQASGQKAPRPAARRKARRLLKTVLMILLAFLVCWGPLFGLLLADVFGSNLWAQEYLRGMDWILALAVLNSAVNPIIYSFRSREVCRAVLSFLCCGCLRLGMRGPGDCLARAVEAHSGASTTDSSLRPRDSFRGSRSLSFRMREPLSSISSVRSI
Sequence of Sphingosine 1-phosphate receptor 1 (P21453 whole entry): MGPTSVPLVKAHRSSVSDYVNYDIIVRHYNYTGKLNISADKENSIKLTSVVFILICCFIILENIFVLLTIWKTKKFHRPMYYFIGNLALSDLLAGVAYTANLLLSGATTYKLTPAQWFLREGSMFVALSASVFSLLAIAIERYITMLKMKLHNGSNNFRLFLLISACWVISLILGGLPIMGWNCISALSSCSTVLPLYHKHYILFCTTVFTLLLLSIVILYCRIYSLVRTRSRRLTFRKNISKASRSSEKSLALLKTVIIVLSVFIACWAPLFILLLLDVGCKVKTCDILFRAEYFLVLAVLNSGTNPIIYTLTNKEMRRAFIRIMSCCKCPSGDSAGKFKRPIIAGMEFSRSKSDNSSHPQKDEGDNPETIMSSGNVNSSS
Sequence of CAAX prenyl protease 1 (P47154 whole entry): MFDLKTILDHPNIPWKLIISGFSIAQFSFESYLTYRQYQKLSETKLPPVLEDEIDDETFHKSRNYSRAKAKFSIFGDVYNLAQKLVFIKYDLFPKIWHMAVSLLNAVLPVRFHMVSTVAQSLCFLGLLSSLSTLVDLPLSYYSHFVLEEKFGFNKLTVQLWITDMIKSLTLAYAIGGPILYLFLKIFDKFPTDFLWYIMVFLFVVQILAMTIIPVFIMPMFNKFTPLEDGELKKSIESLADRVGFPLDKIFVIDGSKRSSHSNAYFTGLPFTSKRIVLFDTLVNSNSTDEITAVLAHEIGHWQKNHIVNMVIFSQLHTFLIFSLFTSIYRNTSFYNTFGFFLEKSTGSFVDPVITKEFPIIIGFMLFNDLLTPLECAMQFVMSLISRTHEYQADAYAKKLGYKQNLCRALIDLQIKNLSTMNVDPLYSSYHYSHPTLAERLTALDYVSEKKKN

In general, EC50 refers to the concentration that produces a half-maximal response. Consider `CCN(CC)S(=O)(=O)c1ccc(OC)c(NC(=O)C(C)Oc2ccc3c(C)cc(=O)oc3c2)c1` (stereo not drawn), for which the EC50 in assay [1] was 16.4 µM (inactive).

Regarding `Cc1cc(C)n(C(=O)c2sc3cc(F)ccc3c2Cl)n1`, at Integrin alpha-L, the EC50 is 0.299 µM (active).

The IC50 is the concentration that gives 50% inhibition. Consider `O=C1C(c2ccncc2)N(CCC2=CCCCC2)C(=O)CN1C1CCCCC1` (stereo not drawn), for which the IC50 at Coagulation factor XII was > 50 µM (inactive).

The CC50 is the concentration at which the toxic effect on the cells reaches its halfway point. Turning to `COc1ccc(-c2csc(Nc3ccc(S(=O)(=O)Nc4cc(OC)nc(OC)n4)cc3)n2)cc1`, the IC50 in assay [2] is 4.76 µM (active). In addition, the CC50 in assay [3] was 15.2 µM (active).

For `CNC(=O)c1[nH]cnc1C(=O)N[C@@H](CC(C)C)C(=O)OCc1ccccc1`, the half-maximal effective concentration (EC50) was 5.27 µM (active) in assay [4] and 22 µM (inactive) in assay [5].

In general, AC50 refers to the concentration giving half of the maximal activity seen. In the case of `CCN=C(S)NNC(=O)CCn1cc(C)cn1`, the AC50 at CAAX prenyl protease 1 is 32.4 µM (active).
